# According to US11096952B2, “Chemicals and methods to prevent and treat TGF-beta mediated activation of fibroblasts to reduce and treat cancer and fibrosis” (Board of Supervisors of Louisiana State University and …, priority 2016, dated 2021):
# Tests used:
# [1] = tested on: TGF-β-induced fibronectin expression; test: Western blot of TGF-β-induced fibronectin expression in WPMY-1 fibroblasts; type: cell-based, human; conditions: for TGF-β-induced fibronectin expression, intracellular Ca2+ modulators (western blot): WPMY-1, 2.5-10 μM, 5 ng/ml TGF-β, 24 hours
# Description: (§1) Inhibitors of CAF Differentiation. A. WPMY-1 cells were plated into each well of 4-chamber slice (for IF), or (C) in a 24 well plate (for western blot analysis). After cell attachment, vehicle or 5 ng/ml TGF-β was added into each well and incubated for 24 h in a 37° C. in a humidified incubator containing 5% CO2. For fluorescence detection (A), cells were fixed and stained with antibody detecting fibronectin and/or stained with DAPI to detect the nuclei. Protein was extracted with boiling Lamaelli buffer for WB (C) and blots were probed with anti-fibronectin or anti-tubulin antibodies. Fibronectin fluorescence (D and E) was measured in the presence or absence of TGF-β in 8 well replicates as follows. Cells were conditioned in serum-free DMEM for 48 hr prior to the addition of TGF-β. Images were acquired using a Cellomics platform with a mask shown in the schematic of (B). The mean of the total fluorescence intensity in each well was calculated from 300 cells per image field and up to 15 fields from each well for fibronectin. The fold change in fibronectin expression per acquired image (nuclei) is shown (Mean+/−SD).
# Panel A1 is the control, Panel A2 is the TGF-β treated wells and Panel A3 is TGF-β plus PsA at 5 micromolar. Images were captured using the Cellomics imaging system.
# Representative blots are shown with two exposures of fibronectin to account for strong signal intensity. n=3.
# FIGS. 9A-9B: Increases in intracellular Ca^2+ prevent TGF-β-induced fibronectin expression. (A) WPMY-1 fibroblasts were treated with 2.5 μM thapsigargin±5 ng/ml TGF-β for 24 hours. (B) WPMY-1 fibroblasts were treated with 2.5-10 μM 3′,4′-dichlorobenzamil hydrochloride (DCB)±5 ng/ml TGF-β for 24 hours. Cell lysates were analyzed by western blot for fibronectin expression.
# Because of the observed low nanomolar effective concentration of the cardiac glycosides, the inventors hypothesized that the cardiac glycosides may be acting by binding to their high affinity target, the Na^+/K^+ ATPase, and that action through the ATPase is the mechanism by which the cardiac glycosides are able to block TGF-β-induced fibronectin expression. It is well documented that inhibition of the Na^+/K^+ ATPase by digoxin leads to increases in intracellular Ca^2+ by preventing Ca^2+ efflux through the Na^+/Ca^2+ exchanger. In order to determine if increased intracellular Ca^2+ is sufficient to prevent TGF-β-induced fibronectin expression, the inventors utilized two compounds that increase intracellular Ca^2+ concentrations. 3′,4′-dichlorobenzamil hydrochloride (DCB) inhibits the Na^+/Ca^2+ exchanger, Na^+ transport, and sarcoplasmic reticulum Ca^2+ release channels. Thapsigargin inhibits the endoplasmic reticulum Ca^+ ATPase, preventing storage of Ca^2+ in the endoplasmic reticulurn, causing an accumulation in the cytoplasm. Cells were treated with 2.5-10 μM of DCB or thapsigargin±TGF-β for 24 hours.
# [2] = tested on: WPMY-1 cells; test: Viability / metabolic activity assay on WPMY-1 cells; conditions: WPMY-1, compound at its IC50, up to 48 hours, 1% FBS DMEM, vs DMSO control
# Description: Metabolically viable cells (indicated by bar; left y-axis) are indicated by fluorescent intensity (560/590 nm).
# Cardiac glycosides have been shown previously to inhibit cell growth in a variety of cell types, in order to determine whether cardiac glycosides inhibited TGE-β-induced fibronectin expression by affecting metabolic activity, viability assays were performed on WPMY-1 cells over 48 hours in 1% FBS DMEM.
# [3] = tested on: TGF-β-induced fibronectin; test: High content imaging (Cellomics) screen for inhibitors of fibronectin induction by TGF-beta in WPMY-1 cells; type: cell-based, human
# Description: as §1, with “The fold change in fibronectin expression per acquired image (nuclei) is shown (Mean+/−SD).” left out
# FIGS. 4A-4H: Dose response for identified hits. As shown in the four panels of FIG. 4A, fibronectin fluorescence was measured from images acquired following a Cellomics scan using WPMY-1 cells with concentrations of hits over a range of 0-100 uM. […] Results were expressed as percent inhibition caused by cells treated with TGF-β alone and without testing compound, which was considered as 100%. […]
# FIGS. 14-15 show Table I—Prestwick Library and Table II—NIH Library chemicals respectively. […] A “hit” was defined as a compound causing at least 50% reduction of “Mean_RingTotal Intensity”, which is the fluorescence intensity within the defined ring (see FIG. 2) surrounding nucleus of each cell, summed for 300 cells per image and 15 fields per image. The solvent, 0.1% Dimethyl Sulfoxide (DMSO), with and without TGF-beta served as an internal control on each plate to normalize day-to-day and plate-to-plate variation with DMSO alone as low fluorescence (0%) and TGF-β treated as maximal fluorescence (100%). […]
# [4] = tested on: activated fibroblast phenotype (fibronectin, YAP, TAZ, smooth muscle actin); test: Western blot of activated fibroblast markers (FN, YAP, TAZ, SMA) in MRC-5 lung fibroblasts induced by growth factors; type: cell-based, human
# Description: FIG. 10C: MRC-5 lung fibroblast cells were serum-starved 24 hours then treated with 10 ng/mL TGF-β in serum-free media for 24 hours with or without verteporfin at the indicated concentration. FN: fibronectin, YAP: yes-activated protein, TAZ: transcriptional coactivator with PDZ-binding motif, and SMA(ACTA2): smooth muscle actin. Representative western blot is shown (n=3).
# FIG. […] T.F.8: combination TGF, FGF, IL8. […] FN: fibronectin, YAP: yes-activated protein, TAZ: transcriptional coactivator with PDZ-binding motif, and SMA(ACTA2): smooth muscle actin. Representative western blot is shown (n=2).
# [5] = tested on: activated fibroblast phenotype; conditions: MRC-5 pre-activated with 10 ng/mL TGF-β 24 hours, then 24 hours treatment
# Description: (§2) FIGS. 13A-13C: MRC-5 lung fibroblast cells were serum-starved 24 hours then treated with or without 10 ng/mL TGF-β for 24 hours (T-24 hr). […] FN: fibronectin, YAP: yes-activated protein, TAZ: transcriptional coactivator with PDZ-binding motif, and SMA(ACTA2): smooth muscle actin. Representative western blot is shown (n=2). […] Cells were fixed in −20C methanol for 15 minutes and immunolabeled for fibronectin. Cellomics arrayscan imaging was performed and staining intensity was quantified and analyzed for fibronectin expression on a per cell basis.
# (§3) Turning now to FIGS. 13A-13E, in a clinical setting, it would be advantageous for the efficacy of the therapeutics that the activated fibroblasts be reversed to a quiescent state upon treatment. […] To test the combinations, the inventors obtained quantitative analysis of fibronectin staining in fibroblasts upon treatment with TGF-β in the presence or absence of drug combinations.
# [6] = tested on: TGF-β-induced fibronectin; conditions: MRC-5, 10 ng/mL TGF-β, 24 hours, low concentrations alone or in combination
# Description: as §2, §3
compound,measurement,setting,value
"CC(=O)OCOC(=O)CN(CC(=O)OCOC(C)=O)c1ccccc1OCCOc1ccccc1N(CC(=O)OCOC(C)=O)CC(=O)OCOC(C)=O [BAPTA-AM, Glycine, N,N′-[1,2-ethanediylbis(oxy-2,1-phenylene)]bis[N-[2-[(acetyloxy)methoxy]-2-oxoethyl]]-, bis[(acetyloxy)methyl] ester]","TGF-β-induced fibronectin expression, intracellular Ca2+ modulators (western blot)",[1],no effect on TGF-β-induced fibronectin expression
"Cl.NC(=NCc1ccc(Cl)c(Cl)c1)NC(=O)c1nc(Cl)c(N)nc1N [DCB, 3′,4′-dichlorobenzamil hydrochloride]","TGF-β-induced fibronectin expression, intracellular Ca2+ modulators (western blot)",[1],able to prevent TGF-β-induced fibronectin expression in a dose-dependent manner
C[C@@H]1O[C@@H](O[C@@H]2C=C3CC[C@@H]4[C@H](CC[C@]5(C)[C@@H](c6ccc(=O)oc6)CC[C@]45O)[C@@]3(C)CC2)[C@H](O)[C@H](O)[C@H]1O [Proscillaridin A],"inhibition of fibronectin induction, western blot","[1]; WPMY-1, TGF-β, dose range of PsA",inhibits induction of fibronectin even a low nanomolar concentrations
same,cell viability / metabolic activity,[2],toxic to cells
same,cell viability / metabolic activity,[2]; listed as proscillaridin A,decreased metabolic activity
same,IC50 / potency for inhibition of TGF-β-induced fibronectin (dose response),"[3]; WPMY-1, 0-100 uM, TGF-β 24 hour",lowest IC50
same,"inhibition of fibronectin induction, Cellomics based image analysis","[3]; WPMY-1, TGF-β plus PsA at 5 micromolar",potent inhibitor of fibronectin induction
CC(=O)O[C@H]1C[C@H](O[C@H]2[C@@H](O)C[C@H](O[C@H]3[C@@H](O)C[C@H](O[C@H]4CC[C@@]5(C)[C@H](CC[C@@H]6[C@@H]5C[C@@H](O)[C@]5(C)[C@@H](C7=CC(=O)OC7)CC[C@]65O)C4)O[C@@H]3C)O[C@@H]2C)O[C@H](C)[C@H]1O[C@@H]1O[C@H](CO)[C@@H](O)[C@H](O)[C@H]1O [lanatoside C],cell viability / metabolic activity,[2],no effect on cell viability
COC(=O)c1ccc2c(c1)NC(=O)/C2=C(\Nc1ccc(N(C)C(=O)CN2CCN(C)CC2)cc1)c1ccccc1 [nintedanib],FGF signaling (TAZ upregulation),"[4]; MRC-5, 10 ng/mL FGF, nintedanib 200 nM, 24 hours",blocks FGF signaling
same,induction of activated fibroblast markers by TGF-β,"[4]; MRC-5, 10 ng/mL TGF-β, nintedanib 200 nM, 24 hours",does not bock induction by TGF-β
C[C@@H]1O[C@@H](O[C@H]2C[C@@H](O)[C@]3(CO)[C@H]4[C@H](O)C[C@]5(C)[C@@H](C6=CC(=O)OC6)CC[C@]5(O)[C@@H]4CC[C@]3(O)C2)[C@H](O)[C@H](O)[C@H]1O [ouabain],cell viability / metabolic activity,[2],no effect on cell viability
Cc1cc(/C=C/c2ccc3cc(N(C)C)ccc3[n+]2C)c(C)n1-c1ccccc1 [pyrvinium],"reversal of activated fibroblast phenotype (fibronectin, TAZ, smooth muscle actin)",[5],revert fibroblasts to the quiescent state
same,fibronectin staining intensity per cell (Cellomics arrayscan),[6],the levels of fibronectin are reduced
same,"activated fibroblast phenotype induced by TGF-β and FGF (fibronectin, YAP, TAZ, smooth muscle actin)","[4]; MRC-5, 10 ng/mL TGF-β and 20 ng/ml FGF, 24 hours",able to prevent the activated fibroblast phenotype
same,"activated fibroblast phenotype upon TGF-β and FGF, compared with nintedanib","[4]; MRC-5, 10 ng/mL TGF-β and 20 ng/ml FGF, 24 hours, nintedanib 200 nM",able to block the activated fibroblast phenotype better than nintedanib
same,"fibroblast activation from a combination of growth factors (TGF, FGF, IL8)","[4]; MRC-5, 10 ng/mL TGF-β, 20 ng/mL FGF, 20 ng/mL IL-8, digoxin 250 nM, pyrvinium 500 nM vs pirfenidone 500 μm, nintedanib 250 nM",able to block fibroblast activation from a combination of growth factors better than pirfenidone or nintedanib
C/C=C(/C)C(=O)O[C@H]1C(C)=C2[C@H]([C@@H]1OC(=O)CCCCCCC)[C@@](C)(OC(C)=O)C[C@H](OC(=O)CCC)[C@@]1(O)[C@H]2OC(=O)[C@@]1(C)O [thapsigargin],"TGF-β-induced fibronectin expression, intracellular Ca2+ modulators (western blot)",[1],able to prevent TGF-β-induced fibronectin expression in a dose-dependent manner
verteporfin,TAZ levels,"[4]; MRC-5, 10 ng/mL TGF-β, 24 hours",not reduced
same,"induction of fibronectin, YAP, TAZ, smooth muscle actin by TGF-β","[4]; MRC-5, 10 ng/mL TGF-β, serum-free, 24 hours, dose escalation",represses TGF-β induced fibronectin and smooth muscle actin expression
